Article PMC4795541, “A Rapid and Quantitative Flow Cytometry Method for the Analysis of Membrane Disruptive Antimicrobial Activity” (PLoS ONE, 2016)
Marks after values point to notes of the source that are not given here. Where a SMILES comes first, the peptide text is derived from it. Where no end group is shown, it is not given here. [ ]: non-standard residue; d: D form. Phe(ol) = N[C@H](CO)Cc1ccccc1; Dab = NCC[C@H](N)C(=O)O; Dap = NC[C@H](N)C(=O)O; Aib = CC(C)(N)C(=O)O

Tested on: F. nucleatum ATCC 25586
Experiment: MDC, flow cytometry Syto9/PI membrane disruption assay
Type: cell-based, Fusobacterium nucleatum
Details: for MDC: F. nucleatum ATCC 25586, 90 min peptide/bacteria incubation, Syto9/PI flow cytometry, extrapolated to 100% PI+ cells, average of 3 assays ± SD; for Antimicrobial activity (MDC50): against F. nucleatum, maximum peptide concentration = 1000 µM
Excerpt: We reasoned that as AMPs disrupt the cytoplasmic membrane we should be able to monitor this disruption using membrane permeable/impermeable fluorescent intercalating DNA dyes that are used to determine the viability of a microbial culture. We initially synthesised melittin (peptide sequence shown in S1 Table) a well characterised, broad-spectrum and potent AMP to investigate whether viability dyes, Syto9 (membrane permeable) and propidium iodide (PI, membrane impermeable), could be used to determine AMP activity, against the melittin-susceptible bacterium Fusobacterium nucleatum. […] Staining cells with 0.1% v/v Syto 9 in 0.9% […] (3.34mM stock solution) and 0.1% v/v PI in saline (50μg/mL stock solution) provided optimal concentrations that gave consistent and distinct cell populations; a membrane intact (Syto9+/PI-) and two membrane disrupted populations (Syto9+/PI+ and Syto9-/PI+; S1 Fig). […] Following from this we then incubated F. nucleatum with variant melittin concentrations and determined the proportion of membrane intact (Syto9+/PI-) and membrane disrupted (PI+ i.e. Syto9+/PI+ and Syto9-/PI+) populations. […] Linear regression of the PI+ values for the peptide concentrations prior to full membrane disruption (% PI+ cells ≤ 99% and ≥ 1–5%) gave an R^2 value of >0.9 and from extrapolation the minimum peptide concentration that induced 100% membrane disruption (MDC) could be determined (Fig 1c, insert). […] Melittin and magainin II are known to have high and low activities against the Gram positive bacterium Streptococcus mutans, respectively. […] Although the standard procedure is a 90 minute incubation of bacteria and AMP, we investigated whether the incubation time could be shortened.
For determination of MDC a 50 μL aliquot of the bacteria/AMP was mixed with 100 μL of 0.9% w/v saline containing 0.1% v/v of SYTO® 9 (3.34mM stock solution) and 0.1% v/v of PI (50μg/mL stock solution) and incubated for 10 minutes at room temperature in the dark. Following incubation the bacterial cell samples were analysed using a Cell Lab Quanta SC MPL flow cytometer (Beckman Coulter) equipped with a 100 W stabilized mercury arc lamp with wavelengths of 365, 404, and 435 nm, and a 488 nm diode laser. The fluorescence from SYTO® 9 was measured through a 525-nm band-pass filter (Fluorescent Channel 1, FL-1), and the red emission of PI was measured with a 670-nm long pass filter (Fluorescent Channel 3, FL-3). A minimum of 100,000 bacterial events were collected and the multi-parametric data analyzed using the Cell Lab Quanta SC software. NB for flow cytometers not fitted with an electrical volume detector for cell counting, the addition of microbeads to the samples can be used to determine cell numbers. MDC was calculated by plotting the percent PI+ cells for the each peptide concentration and fitting a linear curve to the data that is ≤ 99% PI+ cells and ≥ 1–5% PI+ cells (minimum of 4 data points). Inclusion of data points outside of these PI+ cell percentages will result in a positive or negative skewing of the MDC value. By solving the line equation (y = mx + C) for x (peptide concentration) when y = 1 (where 1 = 100% of PI+ cells) the MDC (x) can be determined i.e. MDC = x = (y − C)/m.

Compound	MDC	Antimicrobial activity (MDC50)
CC(=O)NC(C)(C)C(=O)N1CCC[C@H]1C(=O)NC(C)(C)C(=O)N[C@@H](C)C(=O)NC(C)(C)C(=O)N[C@@H](C)C(=O)N[C@@H](CCC(N)=O)C(=O)NC(C)(C)C(=O)N[C@H](C(=O)NC(C)(C)C(=O)NCC(=O)N[C@@H](CC(C)C)C(=O)NC(C)(C)C(=O)N1CCC[C@H]1C(=O)N[C@H](C(=O)NC(C)(C)C(=O)NC(C)(C)C(=O)N[C@@H](CCC(=O)O)C(=O)N[C@@H](CCC(N)=O)C(=O)N[C@H](CO)Cc1ccccc1)C(C)C)C(C)C [Alamethicin] (Ac-[Aib]P[Aib]A[Aib]AQ[Aib]V[Aib]GL[Aib]PV[Aib][Aib]EQ[Phe(ol)]; N-terminus assumed)	21.1 ± 4.1 µM	–
CC[C@H](C)[C@H](NC(=O)CN)C(=O)NCC(=O)N[C@@H](CCN)C(=O)N[C@@H](Cc1ccccc1)C(=O)N[C@@H](CC(C)C)C(=O)N[C@@H](Cc1c[nH]cn1)C(=O)N[C@@H](CO)C(=O)N[C@@H](C)C(=O)N[C@@H](CCN)C(=O)N[C@@H](CCN)C(=O)N[C@@H](Cc1ccccc1)C(=O)NCC(=O)N[C@@H](CCN)C(=O)N[C@@H](C)C(=O)N[C@@H](Cc1ccccc1)C(=O)N[C@H](C(=O)NCC(=O)N[C@@H](CCC(=O)O)C(=O)N[C@H](C(=O)N[C@@H](CCSC)C(=O)N[C@@H](CC(N)=O)C(=O)N[C@@H](CO)C(N)=O)[C@@H](C)CC)C(C)C [Magainin-Dab] (H-GIG[Dab]FLHSA[Dab][Dab]FG[Dab]AFVGEIMNS-NH2; N-terminus assumed)	11.0 ± 1.0 µM	5.5 ± 0.5 µM
CC[C@H](C)[C@H](NC(=O)CN)C(=O)NCC(=O)N[C@@H](CN)C(=O)N[C@@H](Cc1ccccc1)C(=O)N[C@@H](CC(C)C)C(=O)N[C@@H](Cc1c[nH]cn1)C(=O)N[C@@H](CO)C(=O)N[C@@H](C)C(=O)N[C@@H](CN)C(=O)N[C@@H](CN)C(=O)N[C@@H](Cc1ccccc1)C(=O)NCC(=O)N[C@@H](CN)C(=O)N[C@@H](C)C(=O)N[C@@H](Cc1ccccc1)C(=O)N[C@H](C(=O)NCC(=O)N[C@@H](CCC(=O)O)C(=O)N[C@H](C(=O)N[C@@H](CCSC)C(=O)N[C@@H](CC(N)=O)C(=O)N[C@@H](CO)C(N)=O)[C@@H](C)CC)C(C)C [Magainin-Dap] (H-GIG[Dap]FLHSA[Dap][Dap]FG[Dap]AFVGEIMNS-NH2; N-terminus assumed)	29.8±6.9^c μM	14.9 ± 3.5 µM
GIGRFLHSARRFGRAFVGEIMNS-NH2 [Magainin-Arg]	4.9±0.2^c μM	2.5 ± 0.1 µM
GIGXFLHSAXXFGXAFVGEIMNS-CONH2 [Magainin-Orn, magainin II analogue, all lysine residues substituted with ornithine]	11.4 ± 0.3 µM	5.7 ± 0.2 µM
